Read-outs that look alike come from different tables or passages of the source.
How the values were obtained:
TEL-KIT/V560D-BaF3 = assay: Proliferation of TEL-KIT/V560D-BaF3 cells (CCK-8); assay type: cell-based; settings: Mus musculus, read-out: GI50 TEL-KIT/V560D-BaF3
Excerpt: (§1) Compounds as provided herein were further evaluated for their inhibitory effects on proliferation of cancer cells by testing their effects on growth of cancer cells. In this example the following cells were used: primary mouse B cells BaF3 (purchased from ATCC), GIST-T1 cells of the human gastrointestinal stromal tumor cell line (expressing wild-type KIT gene) (purchased from Cosmo Bio Co., Ltd. (Japan)). The present lab further constructed and used the following: mouse Tel-Kit-BaF3 (stably expressing KIT wild-type kinase), mouse Tel-Kit/T670I-BaF3 (stably expressing KIT T670I mutant kinase), mouse Tel-Kit/V559A-BaF3 (stably expressing KIT V559A mutant kinase), mouse Tel-Kit/V559D-BaF3 (stably expressing KIT V559D mutant kinase), mouse Tel-Kit/V559G-BaF3 (stably expressing KIT V559G mutant kinase), mouse Tel-Kit/V560D-BaF3 (stably expressing KIT V560D mutant kinase), mouse Tel-Kit/L576P-BaF3 (stably expressing KIT L576P mutant kinase), mouse Tel-Kit/V654A-BaF3 (stably expressing KIT V654A mutant kinase), mouse Tel-Kit/V654A/V559D-BaF3 (stably expressing KIT V654A V559D mutant kinase), mouse Tel-Kit/T670E-BaF3 (stably expressing KIT T670E mutant kinase), mouse Tel-Kit/T670I/V559D-BaF3 (stably expressing KIT T670I V559D mutant kinase), mouse Tel-Kit/S709F-BaF3 (stably expressing KIT S709F mutant kinase), mouse Tel-Kit/D816E-BaF3 (stably expressing KIT D816E mutant kinase), mouse Tel-Kit/D816H-BaF3 (stably expressing KIT D816H mutant kinase), mouse Tel-Kit/D820E-BaF3 (stably expressing KIT D820E mutant kinase), mouse Tel-Kit/D820G-BaF3 (stably expressing KIT D820G mutant kinase), mouse Tel-Kit/D820Y-BaF3 (stably expressing KIT D820Y mutant kinase), mouse Tel-Kit/N822K-BaF3 (stably expressing KIT N822K mutant kinase), mouse Tel-Kit/Y823D-BaF3 (stably expressing KIT Y823D mutant kinase), mouse Tel-Kit/A829P-BaF3 (stably expressing KIT A829P mutant kinase), GIST-T1-T670I cells of the human gastrointestinal stromal tumor cell line (expressing KIT-T670I mutant gene). The above cell lines were constructed by: amplifying respectively the sequences of human KIT and various mutant kinase regions of KIT via PCR, inserting the fragments respectively into MSCV-Puro vectors having a N-terminal TEL fragment and/or a NPM fragment and/or a TPR fragment (purchased from Clontech), transfecting mouse BaF3 cells with the vectors by means of retrovirus to obtain stably transfected cells, removing the growth factor IL-3, and thereby eventually obtaining cell lines that depend on the transferred protein KIT or various mutants of KIT. […]

TEL-KIT/V654A-BaF3 = assay: Proliferation of TEL-KIT/V654A-BaF3 cells (CCK-8); assay type: cell-based; settings: Mus musculus, read-out: GI50 TEL-KIT/V654A-BaF3
Excerpt: as §1

TEL-KIT/V559G-BaF3 = assay: Proliferation of TEL-KIT/V559G-BaF3 cells (CCK-8); assay type: cell-based; settings: Mus musculus, read-out: GI50 TEL-KIT/V559G-BaF3
Excerpt: as §1

TEL-KIT/A829P-BaF3 = assay: Proliferation of TEL-KIT/A829P-BaF3 cells (CCK-8); assay type: cell-based; settings: Mus musculus, read-out: GI50 TEL-KIT/A829P-BaF3
Excerpt: as §1

TEL-KIT/T670I-BaF3 = assay: Proliferation of TEL-KIT/T670I-BaF3 cells (CCK-8); assay type: cell-based, mouse; settings: Mus musculus, read-out: GI50 TEL-KIT/T670I-BaF3
Excerpt: Compounds as provided herein were further evaluated for their inhibitory effects on proliferation of cancer cells by testing their effects on growth of cancer cells. In this example the following cells were used: primary mouse B cells BaF3 (purchased from ATCC), GIST-T1 cells of the human gastrointestinal stromal tumor cell line (expressing wild-type KIT gene) (purchased from Cosmo Bio Co., Ltd. (Japan)). The present lab further constructed and used the following: mouse Tel-Kit-BaF3 (stably expressing KIT wild-type kinase), mouse Tel-Kit/T670I-BaF3 (stably expressing KIT T670I mutant kinase), mouse Tel-Kit/V559A-BaF3 (stably expressing KIT V559A mutant kinase), mouse Tel-Kit/V559D-BaF3 (stably expressing KIT V559D mutant kinase), mouse Tel-Kit/V559G-BaF3 (stably expressing KIT V559G mutant kinase), mouse Tel-Kit/V560D-BaF3 (stably expressing KIT V560D mutant kinase), mouse Tel-Kit/L576P-BaF3 (stably expressing KIT L576P mutant kinase), mouse Tel-Kit/V654A-BaF3 (stably expressing KIT V654A mutant kinase), mouse Tel-Kit/V654A/V559D-BaF3 (stably expressing KIT V654A V559D mutant kinase), mouse Tel-Kit/T670E-BaF3 (stably expressing KIT T670E mutant kinase), mouse Tel-Kit/T670I/V559D-BaF3 (stably expressing KIT T670I V559D mutant kinase), mouse Tel-Kit/S709F-BaF3 (stably expressing KIT S709F mutant kinase), mouse Tel-Kit/D816E-BaF3 (stably expressing KIT D816E mutant kinase), mouse Tel-Kit/D816H-BaF3 (stably expressing KIT D816H mutant kinase), mouse Tel-Kit/D820E-BaF3 (stably expressing KIT D820E mutant kinase), mouse Tel-Kit/D820G-BaF3 (stably expressing KIT D820G mutant kinase), mouse Tel-Kit/D820Y-BaF3 (stably expressing KIT D820Y mutant kinase), mouse Tel-Kit/N822K-BaF3 (stably expressing KIT N822K mutant kinase), mouse Tel-Kit/Y823D-BaF3 (stably expressing KIT Y823D mutant kinase), mouse Tel-Kit/A829P-BaF3 (stably expressing KIT A829P mutant kinase), GIST-T1-T670I cells of the human gastrointestinal stromal tumor cell line (expressing KIT-T670I mutant gene). The above cell lines were constructed by: amplifying respectively the sequences of human KIT and various mutant kinase regions of KIT via PCR, inserting the fragments respectively into MSCV-Puro vectors having a N-terminal TEL fragment and/or a NPM fragment and/or a TPR fragment (purchased from Clontech), transfecting mouse BaF3 cells with the vectors by means of retrovirus to obtain stably transfected cells, removing the growth factor IL-3, and thereby eventually obtaining cell lines that depend on the transferred protein KIT or various mutants of KIT. The GIST-T1-T670I (expressing C-KIT-T670I mutant gene) cell line was constructed by our laboratory as follows: designing sgRNA that targeted a region around T670 of the KIT gene with CRISPR Design Tool (website: crispr.mit.edu, Zhang Feng Lab), cloning it into pSpCas9(BB)-2A-Puro vector; co-transfecting cells with the resultant vector and a single-stranded oligonucleotide having T670I site mutation that is near to T670, subjecting the resultant to antibiotics screening, followed by dilution, and monocellular culture in a 96-well plate; validating the site T670 of the cells by sequence detection via Sanger sequencing.

TEL-KIT/V559A-BaF3 = assay: Proliferation of TEL-KIT/V559A-BaF3 cells (CCK-8); assay type: cell-based; settings: Mus musculus, read-out: GI50 TEL-KIT/V559A-BaF3
Excerpt: as §1

TEL-KIT/N822K-BaF3 = assay: Proliferation of TEL-KIT/N822K-BaF3 cells (CCK-8); assay type: cell-based; settings: Mus musculus, read-out: GI50 TEL-KIT/N822K-BaF3
Excerpt: as §1

| GI50 (TEL-KIT/V560D-BaF3; 72 hours, CCK-8) [µM] | GI50 (TEL-KIT/V654A-BaF3; 72 hours, CCK-8) [µM] | GI50 (TEL-KIT/V559G-BaF3; 72 hours, CCK-8) [µM] | GI50 (TEL-KIT/A829P-BaF3; 72 hours, CCK-8) [µM] | GI50 (TEL-KIT/T670I-BaF3; 72 hours, CCK-8) [µM] | GI50 (TEL-KIT/V559A-BaF3; 72 hours, CCK-8) [µM] | GI50 (TEL-KIT/N822K-BaF3; 72 hours, CCK-8) [µM] | SMILES | GI50 (TEL-KIT/V560D-BaF3; 72 h) [µM] | GI50 (TEL-KIT/V654A-BaF3; 72 h) [µM] | GI50 (TEL-KIT/V559G-BaF3; 72 h) [µM] | GI50 (TEL-KIT/A829P-BaF3; 72 h) [µM] | GI50 (TEL-KIT/T670I-BaF3; 72 h) [µM] | GI50 (TEL-KIT/V559A-BaF3; 72 h) [µM] | GI50 (TEL-KIT/N822K-BaF3; 72 h) [µM] |
| --- | --- | --- | --- | --- | --- | --- | --- | --- | --- | --- | --- | --- | --- | --- |
| 0.035 | 0.005 | 0.004 | 0.18 | 0.021 | 0.02 | 0.384 | CCN(CC)CCNC(=O)c1c(C)[nH]c(/C=C2\C(=O)Nc3ccc(F)cc32)c1C [Sunitinib, reference compound] | – | – | – | – | – | – | – |
| 0.004 | 0.32 | < 0.0003 | 0.022 | 0.004 | 0.021 | 0.026 | COc1cc2nccc(Oc3ccc(NC(=O)Cc4ccc(Cl)c(C(F)(F)F)c4)cc3)c2cc1OC [Example 2, N-(4-((6,7-dimethoxyquinolin-4-yl)oxy)phenyl)-2-(4-chloro-3-(trifluoromethyl)phenyl)-acetamide] | – | – | – | – | – | – | – |
| – | – | – | – | – | – | – | COc1cc2nccc(Oc3ccc(NC(=O)Cc4ccc(C)c(C(F)(F)F)c4)cc3)c2cc1OC [Example 1, N-(4-((6,7-dimethoxyquinolin-4-yl)oxy)phenyl)-2-(4-methyl-3-(trifluoromethyl)phenyl)acetamide] | 0.005 | 0.11 | < 0.0003 | 0.008 | 0.014 | 0.016 | 0.069 |

From patent US12404244B2, “Pan-KIT kinase inhibitor having quinoline structure and application thereof” (Tarapeutics Science Inc., priority 2018, dated 2025)
